This passage reports IC50 results from paper PMC4128814, “A High Throughput Screen Identifies Potent and Selective Inhibitors to Human Epithelial 15-Lipoxygenase-2” (PLoS ONE, 2014).

Type in all cases: biochemical
The target of one experiment is T1, 5-LOX (Homo sapiens, UniProt P09917).
T1 construct: made in house
T1 sequence (P09917 1-674): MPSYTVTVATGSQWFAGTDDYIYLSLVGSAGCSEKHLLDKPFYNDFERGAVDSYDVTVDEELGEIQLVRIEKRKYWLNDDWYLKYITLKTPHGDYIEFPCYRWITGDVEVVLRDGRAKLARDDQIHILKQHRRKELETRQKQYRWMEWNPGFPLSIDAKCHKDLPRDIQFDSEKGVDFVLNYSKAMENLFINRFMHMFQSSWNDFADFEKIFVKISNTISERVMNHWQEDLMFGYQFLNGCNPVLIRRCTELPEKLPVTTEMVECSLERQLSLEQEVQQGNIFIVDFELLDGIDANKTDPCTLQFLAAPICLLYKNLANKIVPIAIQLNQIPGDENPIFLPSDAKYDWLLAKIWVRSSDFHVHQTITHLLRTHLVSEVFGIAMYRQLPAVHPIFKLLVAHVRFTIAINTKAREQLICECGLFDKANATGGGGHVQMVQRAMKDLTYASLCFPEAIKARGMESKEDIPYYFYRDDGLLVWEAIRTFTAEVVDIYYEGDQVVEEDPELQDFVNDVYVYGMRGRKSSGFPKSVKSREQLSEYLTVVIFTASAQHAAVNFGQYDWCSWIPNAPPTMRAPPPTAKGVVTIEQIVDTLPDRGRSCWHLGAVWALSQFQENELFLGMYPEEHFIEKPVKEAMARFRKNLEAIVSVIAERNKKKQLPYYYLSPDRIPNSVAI
As to the kind of experiment: Lipoxygenase UV-Vis assay, 5-LOX crude extract. As to conditions: estimated from one inhibitor point at 20 µM; 10 µM AA. The procedure: Human leukocyte 5-lipoxygenase (5-LOX) was expressed as a non-tagged protein and used as a crude ammonium sulfate protein fraction, as published previously, [20].
The reactions were initiated by adding 200 nM 15-LOX-2, 30 nM 12-LOX, 40 nM 15-LOX-1, or approximately 100–300 nM (5–10 µL) of 5-LOX crude extract to a cuvette with 2 mL reaction buffer, constantly stirred using a magnetic stir bar at room temperature (22°C). Reaction buffers used for various LOX isozymes were as follows: 25 mM HEPES (pH 7.3), 0.3 mM CaCl2, 0.1 mM EDTA, 0.2 mM ATP, 0.01% Triton X-100, 10 µM AA for the crude, ammonium sulfate precipitated 5-LOX; and 25 mM HEPES (pH 7.5), 0.01% Triton X-100, 10 µM AA for 15-LOX-2, 15-LOX-1, and 12-LOX. The substrate concentration was quantitatively determined by allowing the enzymatic reaction to go to completion in the presence of 15-LOX-2. […] The data were then plotted against inhibitor concentration, followed by a hyperbolic saturation curve fit (assuming total enzyme concentration [E]≪IC50). […] All inhibitors were stored at −20°C in DMSO. NDGA was utilized as positive control for the selectivity assays for the various LOX isozymes.

For another experiment, the target named is T2, ovine COX-1 (Ovis aries, UniProt P05979).
T2 construct: purchased Cayman Chemical
T2 sequence (P05979 25-600): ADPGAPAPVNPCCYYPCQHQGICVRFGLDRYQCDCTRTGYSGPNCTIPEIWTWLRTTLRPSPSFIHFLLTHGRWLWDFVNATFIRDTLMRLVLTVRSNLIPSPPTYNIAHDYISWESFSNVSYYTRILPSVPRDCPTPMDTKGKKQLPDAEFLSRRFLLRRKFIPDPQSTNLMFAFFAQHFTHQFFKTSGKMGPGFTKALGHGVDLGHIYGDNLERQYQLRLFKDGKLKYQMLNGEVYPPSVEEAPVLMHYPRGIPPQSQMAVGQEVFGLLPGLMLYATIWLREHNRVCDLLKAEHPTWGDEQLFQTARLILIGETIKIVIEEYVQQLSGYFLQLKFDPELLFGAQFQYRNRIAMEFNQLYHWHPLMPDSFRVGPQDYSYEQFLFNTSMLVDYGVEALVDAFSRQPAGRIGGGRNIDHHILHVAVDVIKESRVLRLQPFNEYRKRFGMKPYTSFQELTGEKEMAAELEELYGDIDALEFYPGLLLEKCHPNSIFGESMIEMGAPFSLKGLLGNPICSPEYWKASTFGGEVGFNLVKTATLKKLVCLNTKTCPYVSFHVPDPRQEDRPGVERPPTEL
As to the kind of experiment: Cyclooxygenase assay (oxygen electrode), COX-1. As to conditions: estimated from one inhibitor point at 20 µM; 100 µM AA. The method, then:
(§1) Cyclooxygenase activity assay was performed as previously described. Approximately 3 µg of either ovine COX-1 (COX-1) or human recombinant COX-2 (COX-2) (Cayman Chemical) were added to buffer containing 0.1 M Tris-HCl buffer (pH 8.0), 5 mM EDTA, 2 mM phenol and 1 µM hematin at 37°C. The selected inhibitors were added to the reaction cell, followed by an incubation of 5 minutes with either of the COX enzymes. The reaction was then initiated by adding 100 µM AA in the reaction cell, as indicated in enzymatic protocol (Cayman Chemicals). Data were collected using a Hansatech DW1 oxygen electrode and the consumption of oxygen was recorded. Indomethacin and the solvent (DMSO), were used as positive and negative controls, respectively, and the percent inhibition of the enzyme was calculated by comparing the rates of the samples to the controls.

The target in the next experiment is T3, human recombinant COX-2 (Homo sapiens, UniProt P35354).
T3 construct: purchased Cayman Chemical
T3 sequence (P35354 18-604): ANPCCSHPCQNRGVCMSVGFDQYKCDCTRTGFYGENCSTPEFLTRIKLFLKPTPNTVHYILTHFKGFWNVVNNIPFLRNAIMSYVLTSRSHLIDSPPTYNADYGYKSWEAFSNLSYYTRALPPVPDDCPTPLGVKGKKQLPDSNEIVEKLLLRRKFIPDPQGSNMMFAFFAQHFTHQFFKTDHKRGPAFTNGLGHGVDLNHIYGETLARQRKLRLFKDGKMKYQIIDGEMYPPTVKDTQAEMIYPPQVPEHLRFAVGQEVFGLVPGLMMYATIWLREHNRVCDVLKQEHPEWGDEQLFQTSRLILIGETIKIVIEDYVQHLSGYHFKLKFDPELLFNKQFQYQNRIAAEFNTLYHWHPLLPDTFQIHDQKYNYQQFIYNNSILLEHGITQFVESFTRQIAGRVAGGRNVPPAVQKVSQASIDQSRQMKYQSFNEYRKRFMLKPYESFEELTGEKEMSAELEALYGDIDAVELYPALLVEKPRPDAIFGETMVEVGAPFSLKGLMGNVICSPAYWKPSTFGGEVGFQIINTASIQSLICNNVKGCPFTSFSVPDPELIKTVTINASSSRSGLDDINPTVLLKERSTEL
As to the kind of experiment: Cyclooxygenase assay (oxygen electrode), COX-2. As to conditions: estimated from one inhibitor point at 20 µM; 100 µM AA. The procedure:
as §1

Some results are limits rather than exact numbers.

With `Cc1ccc(CSc2ncn(-c3ccccc3)n2)cc1` [MLS000536924], the IC50 at 5-LOX, at ovine COX-1 and on human recombinant COX-2 was greater than 100 µM in each case.

Take `Clc1ccc(-c2nnc(C3CCCCC3)o2)cc1` [MLS000545091]: the IC50 is greater than 50 µM on 5-LOX, greater than 50 µM at ovine COX-1 and greater than 100 µM on human recombinant COX-2.

The term IC50 denotes the midpoint of a concentration-inhibition curve.
